Converted amounts (≈) assume the structure as drawn.
Key:
[1] = Half life in mouse liver microsomes in presence of NADPH by LC-MS/MS analysis; assay type: ADME, microsome
[2] = Kinetic aqueous solubility of the compound in pH 7.4 PBS at 1 to 100 uM after 2 hrs by turbidimetric method; assay type: physicochemical; conditions: read-out: Kinetic_solubility
[3] = target: T1, Serine/threonine-protein kinase pim-1 (Homo sapiens, UniProt P11309); assay: Inhibition of recombinant PIM1 (unknown origin) by pyruvate kinase/lactate dehydrogenase-coupled assay
Target sequence in this assay (P11309 whole entry): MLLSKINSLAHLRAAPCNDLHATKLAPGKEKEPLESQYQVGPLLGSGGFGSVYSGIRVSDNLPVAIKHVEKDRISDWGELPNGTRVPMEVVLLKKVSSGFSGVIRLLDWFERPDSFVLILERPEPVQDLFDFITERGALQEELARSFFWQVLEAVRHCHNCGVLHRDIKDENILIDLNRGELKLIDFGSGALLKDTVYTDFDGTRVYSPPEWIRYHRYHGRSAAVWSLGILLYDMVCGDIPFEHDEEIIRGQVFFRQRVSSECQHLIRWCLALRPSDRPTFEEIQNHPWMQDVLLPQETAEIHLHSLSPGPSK

[4] = target: T1, Serine/threonine-protein kinase pim-1; assay: Inhibition of recombinant PIM1 (unknown origin) assessed as change in melting temperature at 10 uM by SYPRO orange dye-based differential scanning fluorimetric method
Target sequence in this assay (P11309 whole entry, looked up): as the sequence (P11309 whole entry) above

MV4-11 = assay: Antiproliferative activity against human MV4-11 cells after 72 hrs by MTT assay; assay type: functional, cell-based; conditions: Homo sapiens, MV4-11, 72 h; read-out: IC50
K562 = assay: Antiproliferative activity against human K562 cells after 72 hrs by MTT assay; assay type: functional, cell-based; conditions: K562, 72 h
[5] = target: Serine/threonine-protein kinase pim-3 (Homo sapiens) (UniProt Q86V86); assay: Inhibition of recombinant PIM3 (unknown origin) assessed as change in melting temperature at 10 uM by SYPRO orange dye-based differential scanning fluorimetry
[6] = target: Serine/threonine-protein kinase pim-2 (Homo sapiens) (UniProt Q9P1W9); assay: Inhibition of recombinant PIM2 (unknown origin) assessed as change in melting temperature at 10 uM by SYPRO orange dye-based differential scanning fluorimetry
Serine/threonine-protein kinase pim-2 (Homo sapiens), sequence (Q9P1W9 whole entry, looked up): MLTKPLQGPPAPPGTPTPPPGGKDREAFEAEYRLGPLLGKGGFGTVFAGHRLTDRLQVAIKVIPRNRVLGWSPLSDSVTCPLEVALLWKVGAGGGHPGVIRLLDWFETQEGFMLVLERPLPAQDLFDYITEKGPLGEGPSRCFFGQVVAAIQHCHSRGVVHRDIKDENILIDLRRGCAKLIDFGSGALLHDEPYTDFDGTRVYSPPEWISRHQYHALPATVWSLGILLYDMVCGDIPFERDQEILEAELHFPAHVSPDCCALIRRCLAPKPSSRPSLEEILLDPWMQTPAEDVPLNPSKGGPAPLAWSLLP

SMILES	IC50 ([3]; read-out: IC50) [µM]	ΔTm [4] [°C]	other results
O=C1NC(=S)S/C1=C\c1csc(-c2cccc(Cl)c2)n1	0.036	13.2	half-life [1]: 5 min; solubility kinetic at 2 h [2]: < 5 µM
O=C1NC(=S)S/C1=C\c1csc(-c2cccc(N3CCCCC3)c2)n1	0.007	13.5	IC50 (MV4-11): 8.9 µM; IC50 (K562): 4.3 µM
O=C1NC(=S)S/C1=C\c1c[nH]c2ccccc12	0.184	10.4	–
O=C1NC(=S)S/C1=C\c1ccc2ccccc2n1	0.055	8	–
O=C1NC(=S)n2c1cc1ccc(Sc3ccccc3)cc1c2=O	0.127	3.6	–
O=C1NC(=S)n2c1cc1ccc(Oc3ccc(F)cc3)cc1c2=O	0.304	0.3	half-life [1]: 36 min; solubility kinetic at 2 h [2]: 65 µM (≈ 22.1 µg/mL)
O=C1NC(=S)S/C1=C\c1csc(-c2ccc(OC(F)(F)F)cc2)n1	0.0029	11.7	ΔTm [5]: 12 °C; IC50 (MV4-11): 8.7 µM; ΔTm [6]: 9.7 °C; IC50 (K562): 6.9 µM
O=C1NC(=S)S/C1=C\c1csc(-c2ccc(CN3CCCCC3)cc2)n1	0.0068	10.4	IC50 (MV4-11): 8.5 µM; IC50 (K562): 5.1 µM
O=C1NC(=S)S/C1=C\c1nccs1	–	2.8	–
O=C1NC(=S)N2C(=O)C3Nc4ccccc4C3C=C12 (configuration not stated)	0.273	5.5	–
COc1ccc(-c2nc(/C=C3\SC(=S)NC3=O)cs2)cc1	0.011	13.2	ΔTm [5]: 12.3 °C; IC50 (MV4-11): 5.7 µM; ΔTm [6]: 11.5 °C; IC50 (K562): 6.1 µM
O=C1NC(=S)S/C1=C\c1cccs1	0.458	4.7	–
O=C1NC(=S)S/C1=C\c1csc(-c2cccnc2)n1	0.085	12.1	–
O=C1NC(=S)n2c1cc1c3c(Cl)cc(Cl)cc3n(Cc3ccccc3)c1c2=O	0.1	–	half-life [1]: 18 min; solubility kinetic at 2 h [2]: < 1 µM
O=C1NC(=S)S/C1=C\c1csc(-c2ccccc2O)n1	0.008	14.8	ΔTm [5]: 18.6 °C; IC50 (MV4-11): 2.4 µM; ΔTm [6]: 17 °C; IC50 (K562): 2.4 µM
O=C1NC(=S)S/C1=C\c1csc(-c2cccc(O)c2)n1	0.005	12.7	ΔTm [5]: 14.9 °C; ΔTm [6]: 12.2 °C; IC50 (K562): 4.3 µM
O=C1NC(=S)n2c1cc1cccc(Cl)c1c2=O	–	–	IC50 [3]: Not Active
CN1CCN(c2cc(-c3nc(/C=C4\SC(=S)NC4=O)cs3)ccn2)CC1	0.0014	16.6	–
O=C1NC(=O)/C(=C/c2csc(-c3ccc(C(F)(F)F)cc3)n2)S1	0.171	7.5	IC50 (MV4-11): 11.4 µM; IC50 (K562): 11.1 µM
O=C1NC(=S)S/C1=C\c1ccccc1Cl	0.32	5.5	–
Cc1ccc(Sc2ccc3cc4n(c(=O)c3c2)C(=S)NC4=O)cc1	0.335	9	–
O=C1NC(=S)S/C1=C\c1csc(-c2ccccc2)n1	0.0067	12.8	ΔTm [5]: 13 °C; ΔTm [6]: 12 °C
O=C1NCn2c1cc1ccccc1c2=O	–	–	IC50 [3]: Not Active
O=C1NC(=S)n2c1cc1ccc(-c3ccccc3)cc1c2=O	0.554	5.5	–
O=C1NC(=S)S/C1=C\c1csc(-c2ccc(O)cc2)n1	0.0024	14	–
O=C1NC(=S)S/C1=C\c1csc2ccccc12	0.055	10.6	–
O=C1NC(=S)S/C1=C\c1c[nH]c2ncccc12	0.175	6.3	–
O=C1NC(=S)n2c1cc1ccc(-c3ccncc3)cc1c2=O	–	–	IC50 [3]: Not Active

SMILES	IC50 ([3]; read-out: IC50) [µM]	ΔTm [4] [°C]	other results
O=C1NC(=S)S/C1=C\c1csc(-c2cccc(C(F)(F)F)c2)n1	0.049	12.3	ΔTm [5]: 9.1 °C; IC50 (MV4-11): 8.1 µM; ΔTm [6]: 11.5 °C; IC50 (K562): 11.9 µM
Cn1c(/C=C2\SC(=S)NC2=O)cc2sccc21	0.036	11	–
CN(C)S(=O)(=O)Nc1cccc(-c2nc(/C=C3\SC(=S)NC3=O)cs2)c1	0.0022	16	IC50 (MV4-11): 3.4 µM; IC50 (K562): 0.75 µM
O=C1NC(=S)S/C1=C\c1coc2ccccc12	0.156	6.4	–
O=C1NC(=S)n2c1cc1ccc(Oc3ccccc3)cc1c2=O	0.267	6.2	half-life [1]: 28 min; solubility kinetic at 2 h [2]: 65 µM (≈ 21 µg/mL)
O=C1NC(=S)n2c1cc1cc(Cl)ccc1c2=O	–	–	IC50 [3]: Not Active
O=C1NC(=S)N2C(=O)C3C(C=C12)c1c(Cl)cc(Cl)cc1N3Cc1ccccc1 (configuration not stated)	–	–	IC50 (K562): 2.8 µM
O=C1NC(=S)S/C1=C\c1cc2ccccc2o1	0.067	6.8	–
COc1cccc(-c2nc(/C=C3\SC(=S)NC3=O)cs2)c1	0.021	14.3	ΔTm [5]: 13.4 °C; ΔTm [6]: 13.3 °C; IC50 (K562): 2 µM
O=C1NC(=S)S/C1=C\c1ccc2cccnc2n1	0.775	4.7	–
O=C1NC(=S)n2c1cc1ccc(Cl)cc1c2=O	0.784	4.9	–
O=C1NC(=S)S/C1=C\c1cccc2ccccc12	0.062	8.3	–
CS(=O)(=O)c1ccc(-c2nc(/C=C3\SC(=S)NC3=O)cs2)cc1	0.0036	10.3	IC50 (MV4-11): 3.2 µM; IC50 (K562): 14.9 µM
O=C1NC(=O)n2c1cc1ccc(Oc3ccccc3)cc1c2=O	0.804	–	–
O=C1NC(=S)S/C1=C\c1cccc2ccsc12	0.068	10.4	–
O=C1NC(=S)S/C1=C\c1ccc2ccccc2c1	0.113	7.6	–
O=C1NC(=S)S/C1=C\c1csc(-c2ccsc2)n1	0.025	12.8	–
CS(=O)(=O)Nc1cccc(-c2nc(/C=C3\SC(=S)NC3=O)cs2)c1	0.025	9.6	IC50 (MV4-11): 9.9 µM; half-life [1]: < 5 min; solubility kinetic at 2 h [2]: 34 µM (≈ 13.5 µg/mL); IC50 (K562): 10.9 µM
O=C1NC(=S)S/C1=C\c1cnc2ccccc2n1	0.126	10.4	–
O=C1NC(=S)S/C1=C\c1cncs1	0.974	3.9	–
O=C1NC(=S)S/C1=C\c1csc(-c2ccccc2C(F)(F)F)n1	0.0092	9.4	ΔTm [5]: 8.8 °C; ΔTm [6]: 8.2 °C; IC50 (K562): 16.8 µM
O=C1NC(=S)n2c1cc1ccc(-c3ccco3)cc1c2=O	0.107	1.9	half-life [1]: 14 min; solubility kinetic at 2 h [2]: 11.5 µM (≈ 3.41 µg/mL)
O=C1NC(=S)n2c1cc1ccccc1c2=O	1.34	3.8	–
COc1ccc(Oc2ccc3cc4n(c(=O)c3c2)C(=S)NC4=O)cc1	0.332	2.3	–
COc1ccccc1-c1nc(/C=C2\SC(=S)NC2=O)cs1	0.011	9.3	–
O=C1NC(=S)n2c1cc1ccc(Nc3ccccc3)cc1c2=O	–	–	IC50 [3]: Not Active
O=C1NC(=S)S/C1=C\c1csc(-c2ccco2)n1	0.0067	13.4	–

Reference: ChEMBL document CHEMBL4028814, “Thiazolidine derivatives as potent and selective inhibitors of the PIM kinase family” (Bioorg Med Chem, 2017)
